These results are taken from paper PMC8530938 (Chemico-biological interactions, 2021).

Where two headings read alike, the source gives them in different places.

One data set relates to yeast ADH1. The note with it: oxidation; ref [77]; cited from earlier work.
For the next data set, the system named is yeast ADH2. As to conditions: oxidation; ref [77]; cited from earlier work.
In data set [1] the target is T1, T45G yeast alcohol dehydrogenase (ADH1) (Saccharomyces cerevisiae, UniProt P00330, T46G). The data set is described as follows: biochemical. The format is biochemical.
Data set [2] addresses wild-type yeast alcohol dehydrogenase (ADH1). As to conditions: pH 7.3, 30 °C, ref [21], cited from earlier work.
Data set [3] has as its target T1, T45G yeast alcohol dehydrogenase (ADH1).
In the next data set the target is horse liver ADH. The note with it: cited from earlier work.
Data set [4] addresses wild-type yeast enzyme (ADH1). The note with it: read-out: Kd of NAD+; pH 8; ref [11]; cited from earlier work.
The target of data set [5] is T1, T45G yeast alcohol dehydrogenase (ADH1). The data set is described as follows: Spectrophotometric titration with NAD+ in the presence of 10 mM pyrazole. The format is binding. The note with it: titration in the presence of 10 mM pyrazole.
Data set [6] concerns horse liver ADH1E with S48A substitution. As to conditions: ref [6]; cited from earlier work.

T1 sequence (P00330 2-348 T46G): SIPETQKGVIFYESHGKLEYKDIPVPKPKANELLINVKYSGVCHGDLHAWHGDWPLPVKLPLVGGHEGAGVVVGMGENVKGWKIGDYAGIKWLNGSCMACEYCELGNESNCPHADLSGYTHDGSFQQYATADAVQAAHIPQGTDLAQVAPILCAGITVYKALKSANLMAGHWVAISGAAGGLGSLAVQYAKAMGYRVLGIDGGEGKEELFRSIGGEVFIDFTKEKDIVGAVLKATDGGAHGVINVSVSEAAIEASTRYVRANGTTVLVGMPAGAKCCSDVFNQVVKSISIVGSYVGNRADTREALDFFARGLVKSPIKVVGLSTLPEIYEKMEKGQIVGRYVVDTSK

In the case of `OCc1ccccc1` [Benzyl alcohol], the turnover number in the data set on yeast ADH1 is 0.012 s⁻¹; with yeast ADH2 it was 1.9 s⁻¹.

Consider `OCC(F)(F)F` [CF3CH2OH, 2,2,2-trifluoroethanol], for which the Ki in data set [1] was 27000 µM; in [2] (read-out: Ki, dissociation (inhibition) constant, competitive inhibitor of ethanol), 2500 µM. Besides, the “increase of dissociation constant (Ki), T45G relative to wild type” value in [1] (pH 7.3) was determined as 10 fold.

For the molecule `NC(=O)C1=CN([C@@H]2O[C@H](COP(=O)(O)OP(=O)(O)OC[C@H]3O[C@@H](n4cnc5c(N)ncnc54)[C@H](O)[C@@H]3O)[C@@H](O)[C@H]2O)C=CC1` [NADH], the “Kq, Michaelis constant for NADH” value in data set [1] (pH 7.3, 30 °C) was 47 µM; in data set [2] it was 94 µM. The Ki was 70 µM in data set [1] (read-out: Kiq, dissociation (inhibition) constant for NADH, pH 7.3, 30 °C); 31 µM in data set [2] (read-out: Kiq, dissociation (inhibition) constant for NADH); 3.8 µM in data set [3] (read-out: Kiq, NADH, pH 5.52, 30 °C); 8.6 µM in data set [3] (read-out: Kiq, NADH, pH 6.06, 30 °C); 11 µM in [3] (read-out: Kiq, NADH, pH 6.52, 30 °C); 38 µM in [3] (read-out: Kiq, NADH, pH 7.00, 30 °C). In addition, the Ki is 156 µM in data set [3] (read-out: Kiq, NADH, pH 7.65, 30 °C); 290 µM in data set [3] (read-out: Kiq, NADH, pH 8.08, 30 °C); 450 µM in data set [3] (read-out: Kiq, NADH, pH 8.96, 30 °C). Moreover, the “Kq, NADH” value came to 9.6 µM in data set [3] (pH 5.52, 30 °C); 3.4 µM in data set [3] (pH 6.06, 30 °C); 18 µM in data set [3] (pH 6.52, 30 °C); 13 µM in [3] (pH 7.00, 30 °C); 220 µM in data set [3] (pH 7.65, 30 °C); 320 µM in [3] (pH 8.08, 30 °C). Further, the “Kq, NADH” value in data set [3] (pH 8.96, 30 °C) was determined as 910 µM.

Take `NC(=O)c1ccc[n+]([C@@H]2O[C@H](COP(=O)([O-])OP(=O)(O)OC[C@H]3O[C@@H](n4cnc5c(N)ncnc54)[C@H](O)[C@@H]3O)[C@@H](O)[C@H]2O)c1` [NAD^+]: the “Ka, Michaelis constant for NAD+” value in data set [1] (pH 7.3, 30 °C, 83 mM potassium phosphate, 40 mM KCl, 0.25 mM EDTA) was 1500 µM; in [2] (83 mM potassium phosphate, 40 mM KCl, 0.25 mM EDTA), 160 µM. Also, the Ki in data set [1] (read-out: Kia, dissociation (inhibition) constant for NAD+, pH 7.3, 30 °C) was 1600 µM; in [2] (read-out: Kia, dissociation (inhibition) constant for NAD+), 950 µM; in data set [3] (read-out: Kia, NAD+, pH 5.60, 30 °C), 800 µM; in data set [3] (read-out: Kia, NAD+, pH 6.05, 30 °C) it was 650 µM; in data set [3] (read-out: Kia, NAD+, pH 6.54, 30 °C), 720 µM; in [3] (read-out: Kia, NAD+, pH 7.00, 30 °C), 880 µM. Also, the Ki in data set [3] (read-out: Kia, NAD+, pH 8.07, 30 °C) turned out to be 1130 µM; in data set [3] (read-out: Kia, NAD+, pH 9.00, 30 °C) it was 1470 µM; in data set [3] (read-out: Kia, NAD+, pH 9.95, 30 °C), 2370 µM. For the same molecule, the Kd on horse liver ADH (read-out: Kd of NAD+, open conformation of the protonated enzyme, pH 8, ref [11]) is 670 µM; at horse liver ADH (read-out: observed dissociation constant for NAD+, after deprotonation and the conformational change, ref [52]), 27 µM; in [4], 1000 µM. In [5], the “apparent Kd for NAD+” value is “about the same as for wild-type enzyme”. The “Ka, NAD+” value stood at 660 µM in data set [3] (pH 5.60, 30 °C); 510 µM in [3] (pH 6.05, 30 °C); 720 µM in data set [3] (pH 6.54, 30 °C); 690 µM in data set [3] (pH 7.00, 30 °C); 2100 µM in data set [3] (pH 8.07, 30 °C); 2140 µM in data set [3] (pH 9.00, 30 °C). Further, in data set [3] (pH 9.95, 30 °C), the “Ka, NAD+” value is 1580 µM.

As for `CC=O` [acetaldehyde], the “V2/Et, turnover number for acetaldehyde reduction” value in data set [1] (pH 7.3, 30 °C) is 7.8 s⁻¹; in data set [2], 1800 s⁻¹. In addition, the “Kp, CH3CHO” value in data set [3] (pH 5.52, 30 °C) came to 52 mM; in data set [3] (pH 6.06, 30 °C), 46 mM; in data set [3] (pH 6.52, 30 °C) it was 56 mM; in data set [3] (pH 7.00, 30 °C), 41 mM; in data set [3] (pH 7.65, 30 °C), 43 mM; in data set [3] (pH 8.08, 30 °C) it was 35 mM. Further, the “Kp, CH3CHO” value in [3] (pH 8.96, 30 °C) was determined as 33 mM. Besides, the “V2/Et (acetaldehyde reduction)” value in data set [3] (pH 5.52, 30 °C) worked out at 21 s⁻¹; in data set [3] (pH 6.06, 30 °C), 16 s⁻¹; in data set [3] (pH 6.52, 30 °C) it was 16 s⁻¹; in data set [3] (pH 7.00, 30 °C), 9.5 s⁻¹; in data set [3] (pH 7.65, 30 °C), 9.3 s⁻¹; in data set [3] (pH 8.08, 30 °C), 7.3 s⁻¹. The “V2/Et (acetaldehyde reduction)” value in [3] (pH 8.96, 30 °C) came to 4.2 s⁻¹.

As to `CCO` [ethanol], the “V1/Et, turnover number for ethanol oxidation” value in data set [1] (pH 7.3, 30 °C) is 0.64 s⁻¹; in data set [2], 360 s⁻¹. In addition, the turnover with ethanol in data set [6] is 0.018 s⁻¹. Further, the “V1/Et (ethanol oxidation)” value in data set [3] (pH 5.60, 30 °C) worked out at 0.11 s⁻¹; in data set [3] (pH 6.05, 30 °C), 0.19 s⁻¹; in data set [3] (pH 6.54, 30 °C), 0.32 s⁻¹; in [3] (pH 7.00, 30 °C), 0.42 s⁻¹; in data set [3] (pH 8.07, 30 °C), 0.72 s⁻¹; in [3] (pH 9.00, 30 °C) it was 0.56 s⁻¹. In addition, the “V1/Et (ethanol oxidation)” value in data set [3] (pH 9.95, 30 °C) turned out to be 0.44 s⁻¹. Besides, the Kb in data set [3] (read-out: Kb, CH3CH2OH, pH 9.95, 30 °C) amounted to 91000 µM.
